Experimental data taken from patent publication US4562275A, “Antitumor platinum complexes” (priority 1984, dated 1985).
Where “and” joins values, the source holds several entries; their conditions need not be identical. Identical values can stand only once.

Key:
L1210 leukemia = assay: Antitumor activity vs transplantable L1210 leukemia (ip) in mice; format: in vivo, mouse; conditions: for Max % T/C: dying mice only; for OD (optimum dose): optimum dose from the L1210 test
Text: The antitumor activities of the complexes provided by the present invention have been determined against L-1210 leukemia in the mouse and, for certain of the complexes, against other mouse tumor systems.
(§1) Results of antitumor testing against the transplantable mouse tumors L1210 leukemia, cisplatin-resistant L1210 leukemia, B16 melanoma, Madison 109 lung carcinoma and colon 26 carcinoma are shown below in Tables 1 and 2.
In Table 1 are shown the maximum % T/C values obtained for each platinum compound versus L1210 leukemia using both single and qd 1→5 dosing.
(§2) The methods used to evaluate the platinum complexes for antitumor activity and toxicity in animals are summarized below. These methods have been published elsewhere in more detail (Rose, et al. Cancer Treat. Rep. 66: 135, 1982; Florczyk, et al, Cancer Treat. Rep. 66: 187, 1982).
(§3) The parent line of L1210 leukemia (L1210) was maintained in DBA/2 mice by ip transplantation of 10^5 cells at weekly intervals. […] B16 malenoma (B16) was maintained by sc transplant in C57BL/6 mice every two weeks. Madison 109 lung carcinoma (M109) and colon 26 carcinoma (C26) were maintained by sc transplant in BALB/c mice every two weeks.
(§4) The level and route of tumor inoculum, host, group size, and drug treatment schedule and route for each tumor type are summarized below in Table 6. Each complex was evaluated initially against L1210 at 4 dose levels per schedule selected on the basis of lethality data provided by the Wadley Institute. In subsequent experiments with the other tumors the complexes were evaluated at a minimum of 3 dose levels selected on the basis of maximum tolerated levels in the L1210 experiments. Cisplatin-treated groups and a saline-treated (or untreated) tumor control group were included in each experiment.
(§5) The L1210 experiments were terminated on Day 30 whereas the B16, C26 and M109 experiments were terminated on Day 60 (some C26 experiments were terminated on Day 75). Mice alive at the termination day were autopsied and considered cured if no tumor was visible. […] A complex was considered active if it produced a % T/C value ≥125.

[1] = tested on: L1210/CDDP (cisplatin resistant line of L1210 leukemia); assay: Antitumor activity vs cisplatin-resistant L1210 leukemia (L1210/CDDP) in mice; format: in vivo, mouse
Text: Results of antitumor testing against the transplantable mouse tumors L1210 leukemia, cisplatin-resistant L1210 leukemia, B16 melanoma, Madison 109 lung carcinoma and colon 26 carcinoma are shown below in Tables 1 and 2. […]
as §2, §3, §4, §5

B16 melanoma [2] = assay: Antitumor activity vs ip B16 melanoma in mice; format: in vivo, mouse; parameters: O.D.: unit not given here; conditions: for O.D.: ip B16 (3×; 9×); for Max. % T/C: ip B16 (3×; 9×): q4d × 3 or qd 1-9, ip, dying mice only; for Ratio of Max. % T/C Complex/cDDP: ip B16, relative to concomitant cisplatin
Text: as §2, §3
The level and route of tumor inoculum, host, group size, and drug treatment schedule and route for each tumor type are summarized below in Table 6. Each complex was evaluated initially against L1210 at 4 dose levels per schedule selected on the basis of lethality data provided by the Wadley Institute.
as §5

BDF1 mice [3] = assay: Single-dose ip LD50 in BDF1 mice; format: in vivo, mouse; conditions: 30 days observation
Protocol: Single-dose ip LD50 values were determined in BDF1 mice for the indicated complexes.

BDF1 mice [4] = assay: Nephrotoxicity: effect on blood urea nitrogen (BUN) in BDF1 mice; conditions: for BUN↑, Mouse: effect relative to cisplatin
Protocol: The other compounds were in such short supply that they were tested for effects on BUN values using the optimum dose (O.D.) from the L1210 test for dose selection.
The toxicity studies were done in male BDF1 mice (25-29 gm) and castrated male Fitch ferrets (1-1.5 kg).
The complexes that were active against L1210 were evaluated for nephrotoxicity by determining their effects on blood urea nitrogen (BUN) levels in mice. Groups of 40-50 mice/experiment were bled from the retro-orbital plexus and individual BUN values determined by a modified urease method using a Centrifichem System 400. The test complex, or saline for controls, was given at several dose levels (5-10 mice/dose) in single ip injections. The highest dose of the complex usually corresponded to its LD50 value or 1.5 times its optimal single dose in the L1210 experiment. At least two lower doses were included to evaluate dose-related effects. The BUN values were measured 4 and 7 days after dosing. BUN values ≥30 mg% were considered indicative of drug-induced nephrotoxicity.

BDF1 mice [5] = assay: Deaths (D.14) in the BUN test in BDF1 mice; format: in vivo, mouse
C26 carcinoma = assay: Antitumor activity vs ip C26 (colon 26) carcinoma in mice; format: in vivo, mouse; parameters: O.D.: unit not given here; conditions: for Max. % T/C: ip C26 (2×; 4×): q3d × 2 or qd 1-4, ip, dying mice only; for Ratio of Max. % T/C Complex/cDDP: ip C26, relative to concomitant cisplatin
Text: as §1, §2, §3, §4, §5
8 q3d^b × 2 or qd 1-4, ip

M109 carcinoma = assay: Antitumor activity vs ip M109 (Madison 109 lung) carcinoma in mice; format: in vivo, mouse; parameters: O.D.: unit not given here; conditions: for O.D.: ip M109 (2×; 4×); for Max. % T/C: ip M109 (2×; 4×): q3d × 2 or qd 1-4, ip, dying mice only; for Ratio of Max. % T/C Complex/cDDP: ip M109, relative to concomitant cisplatin
Text: as §1, §2, §3, §4, §5
8 q3d^a × 2 or qd 1-4, ip

[6] = Solubility stated in the preparation examples
B16 melanoma [7] = assay: Antitumor activity vs B16 melanoma, sc tumor implant with iv drug dosing; format: in vivo, mouse
Text: ^b Sc tumor implant with iv drug dosing.
as §3, §4, §5

ferret = assay: Emetic effects (and lethality) in the ferret; format: in vivo, castrated male Fitch ferrets
Protocol: Selected complexes were evaluated for emetic effects in ferrets. […] The time to the first emetic episode (retching and expulsion of vomitus) and the number of episodes were recorded. […] Subsequent test doses were selected based on the emetic response and lethality of the initial dose.

[8] = L1210, Day 1, in intralipid plus ethanol
[9] = L1210, single dose Day 1, ip, (a), (b) determinations
[10] = L1210, single dose Day 1, ip, dose giving the Max % T/C, same order
[11] = Day 1, in intralipid plus ethanol

Row | Molecule | O.D. (optimal dose) (L1210 leukemia; L1210, QD 1 → 5, ip) [mg/kg/inj] | Max % T/C (L1210 leukemia; [9]) | O.D. (optimal dose) (L1210 leukemia; [10]) | OD (optimum dose) (L1210 leukemia) | O.D. (B16 melanoma [2]) | Max. % T/C (B16 melanoma [2]) [%] | LD50 (BDF1 mice [3]) [mg/kg/ip] | BUN↑, Mouse (BDF1 mice [4]) | Max % T/C (L1210 leukemia; L1210, QD 1 → 5, ip) [%] | Cures/total ([1]; Day 1) | O.D. (optimal dose) ([1]; Day 1) [mg/kg/inj] | Max % T/C ([1]; Day 1, dying mice only) [%] | Ratio of Max. % T/C Complex/cDDP (B16 melanoma [2]) | O.D. (C26 carcinoma; ip C26 (2×; 4×)) | O.D. (M109 carcinoma) | Max. % T/C (M109 carcinoma) [%] | Incidence of BUN > 30 mg % (BDF1 mice [4]; 30 mg/kg ip) | Deaths D.14 (BDF1 mice [5]; 30 mg/kg ip) | Incidence of BUN > 30 mg % (BDF1 mice [4]; 17 mg/kg ip) | Deaths D.14 (BDF1 mice [5]; 17 mg/kg ip) | also measured
1 | CCCCB([O-])[O-].N[C@@H]1CCCC[C@H]1N.[Pt+2] (relative stereo) [Example 7, n-butylboronato trans(-)-1,2-diaminocyclohexane platinum(II)] | 1 | 179% | 3 mg/kg/inj | 3.6 mg/kg/ip | 1.2 | 120 | 11.3 | 0 | – | – | – | – | – | – | – | – | – | – | – | – | O.D. (optimal dose) (L1210 leukemia; [8]): 6 mg/kg/inj; Max % T/C (L1210 leukemia; [8]): 236% and 217%; Cures/total [1, 11]: 5/6; O.D. (optimal dose) [1, 11]: 8 mg/kg/inj; Max % T/C ([1]; Day 1, in intralipid plus ethanol, dying mice only): 427%; Incidence of BUN > 30 mg % (BDF1 mice [4]; 6.4 mg/kg ip): 0/10; Incidence of BUN > 30 mg % (BDF1 mice [4]; 8.5 mg/kg ip): 0/10; Incidence of BUN > 30 mg % (BDF1 mice [4]; 11.3 mg/kg ip): 0/10; Deaths D.14 (BDF1 mice [5]; 6.4 mg/kg ip): 0/10; Deaths D.14 (BDF1 mice [5]; 8.5 mg/kg ip): 0/10; Deaths D.14 (BDF1 mice [5]; 11.3 mg/kg ip): 0/10
2 | phosphonoacetato trans(-)-1,2-diaminocyclohexane platinum(II) [Example 11] | 10 | 179% and 225% | 20 mg/kg/inj and 24 mg/kg/inj | 20 mg/kg/ip | 9 | 206 | 20 | – | 207 | 2/6 | 24 | 240 | .97 | 8 | 10 | 114 | 0/5 | 0/5 | – | – | Max. % T/C (C26 carcinoma): 116%; Ratio of Max. % T/C Complex/cDDP (C26 carcinoma): .81; Ratio of Max. % T/C Complex/cDDP (M109 carcinoma): .74; Incidence of BUN > 30 mg % (BDF1 mice [4]; 20 mg/kg ip): 0/5; Deaths D.14 (BDF1 mice [5]; 20 mg/kg ip): 0/5; Solubility in alcohol ([6]; alcohol): insoluble; Solubility in water [6]: soluble
3 | CC(C)CC(C)(N)CN.[O-]B([O-])O.[Pt+2] (stereo not shown) [Example 10, borato 1,2-diamino-2,4-dimethylpentane platinum(II)] | 10 | 171% and 225% | 20 mg/kg/inj and 24 mg/kg/inj | 10-20 mg/kg/ip | 9 | 174 | 30 | < | 236 | 5/6 | 24 | 307 | .82 | 8 | 5 | 74 | 7/10 | 1/10 | 0/10 | 0/10 | Max. % T/C (C26 carcinoma): 100%; Ratio of Max. % T/C Complex/cDDP (C26 carcinoma): .69; Ratio of Max. % T/C Complex/cDDP (M109 carcinoma): .48; Incidence of BUN > 30 mg % (BDF1 mice [4]; 22.5 mg/kg ip): 1/10; Deaths D.14 (BDF1 mice [5]; 22.5 mg/kg ip): 0/10; Solubility in methanol ([6]; methanol): soluble; Solubility in water [6]: soluble
4 | N.N.[Cl][Pt][Cl] [Cisplatin, reference compound] | – | – | – | 8 mg/kg/ip | – | – | – | – | – | – | – | – | – | – | – | – | – | – | – | – | Max. % T/C (B16 melanoma [2]; listed as cDDP): 172% and 186% and 191% and 220% and 185% and 212% and 189%; Cures/total (C26 carcinoma; ip C26 (2×; 4×)): 2/8; Max. % T/C (C26 carcinoma; listed as cDDP): 176% and 163% and 144%; O.D. (C26 carcinoma; ip C26 (2×; 4×), listed as cDDP): 4 and 3 and 2.5; Max. % T/C (M109 carcinoma; listed as cDDP): 153% and 175% and 155% and 163% and 142%; O.D. (B16 melanoma [7]): 6; Max. % T/C (B16 melanoma [7]; dying mice only): 152%; Deaths D.14 (BDF1 mice [5]; 8 mg/kg ip, historical ranges, 20160 min): 0-40%; Deaths D.14 (BDF1 mice [5]; 10.5 mg/kg ip, historical ranges, 20160 min): 0-50%; Deaths D.14 (BDF1 mice [5]; 12 mg/kg ip, historical ranges, 20160 min): 20-100%; Deaths D.14 (BDF1 mice [5]; 14 mg/kg ip, historical ranges): 50-100%
5 | CCC(=O)C(=O)[O-].CCC(=O)C(=O)[O-].N[C@@H]1CCCC[C@H]1N.[Pt+2] (relative stereo) [Example 5, bis(2-ketobutyrato)trans(-)-1,2-diaminocyclohexane platinum(II)] | 2.5 | 186% and 200% | 10 mg/kg/inj and 9 mg/kg/inj | 10 mg/kg/ip | 4 | 163 | 30 | 0 | 193 | 2/6 | 9 | 144 | – | – | 6 | 131 | 1/9 | 3/10 | 0/10 | 1/10 | Incidence of BUN > 30 mg % (BDF1 mice [4]; 22.5 mg/kg ip): 0/10; Deaths D.14 (BDF1 mice [5]; 22.5 mg/kg ip): 1/10
6 | N[C@@H]1CCCC[C@H]1N.[O]=[Mn](=[O])([O-])[O-].[Pt+2] [Example 8, manganato trans(-)-1,2-diaminocyclohexane platinum(II)] | 2.5 | 214% and 186% | 20 mg/kg/inj and 18 mg/kg/inj | 20 mg/kg/ip | 2 | 160 | 31 | 0 | 293 | – | 8 | 181 | – | – | – | – | – | – | 0/9 | 1/10 | Incidence of BUN > 30 mg % (BDF1 mice [4]; 23 mg/kg ip): 0/7; Incidence of BUN > 30 mg % (BDF1 mice [4]; 31 mg/kg ip): 0/8; Emesis Episodes (ferret; 16 mg/kg iv): 15; Emesis onset in responding animals (ferret; 16 mg/kg iv): 16 min; No. With Emesis/No. tested (ferret; 16 mg/kg iv, 6 h observation): 1/1; acute lethality (ferret; ferret, 16 mg/kg iv): 44 min; Lethal dose (ferret; ferret, doses marked * = Lethal dose): 16 mg/kg iv; Deaths D.14 (BDF1 mice [5]; 23 mg/kg ip): 3/10; Deaths D.14 (BDF1 mice [5]; 31 mg/kg ip): 2/10
